In test [1] the target is T1, ALK2 R206H (GST-tagged mutant ALK2) (Homo sapiens, UniProt Q04771, R206H).
T1 construct: purchased Carna Bioscience or ThermoFisher 09-148 or PV6232
T1 sequence (Q04771 21-509 R206H): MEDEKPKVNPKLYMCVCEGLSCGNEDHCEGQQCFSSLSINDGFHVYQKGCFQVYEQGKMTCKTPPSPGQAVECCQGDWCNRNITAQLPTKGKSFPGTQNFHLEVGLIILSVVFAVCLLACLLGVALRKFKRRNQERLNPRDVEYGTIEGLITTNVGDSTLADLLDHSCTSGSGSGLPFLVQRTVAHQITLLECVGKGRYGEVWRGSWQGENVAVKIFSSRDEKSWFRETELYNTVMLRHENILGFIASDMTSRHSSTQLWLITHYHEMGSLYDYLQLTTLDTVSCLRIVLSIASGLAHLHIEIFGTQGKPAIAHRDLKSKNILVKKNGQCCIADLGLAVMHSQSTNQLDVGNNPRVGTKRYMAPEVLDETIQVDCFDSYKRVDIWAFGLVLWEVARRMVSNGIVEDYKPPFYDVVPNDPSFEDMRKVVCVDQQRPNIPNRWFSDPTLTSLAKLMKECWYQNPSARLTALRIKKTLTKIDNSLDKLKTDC
Nature of the test: ALK binding assay (LANTHASCREEN TR-FRET competitive binding, displacement of Kinase Tracer 178). To be noted: ALK2 R206H, LANTHASCREEN TR-FRET competitive binding; read-out: Binding Assay (IC50). A general note: Time-resolved FRET reads energy transfer from a long-lived donor to a nearby acceptor.

The target of test [2] is T2, human ALK2 R206H (Homo sapiens, UniProt Q04771, R206H).
T2 construct: expressed in transfected cells; host or cells: HEK293 (ATCC CRL1573), lentivirus transduction, blasticidin selection
T2 sequence (Q04771 21-509 R206H): T1 sequence (Q04771 21-509 R206H)
The experiment in a line: Cell-based ALK2-R206H cell activity assay (Smad1-Ser463/Ser465 phosphorylation by AlphaLISA in HEK293-ALK2-R206H cells). To be noted: read-out: Cell Line (Cell Assay IC50). As for the experimental part:
A HEK293 (ATCC, Cat^# CRL1573) based stable cell line expressing human ALK2 R206H cDNA (synthesized by GeneScript, Piscataway, N.J.) and a FLAG tag at the C-terminus was generated by lentivirus transduction and subsequent blasticidin (Life Technologies, Cat^#-A1113902) selection at 10 μg/ml for >2 wks. This cell line was named HEK293-ALK2-R206H.
Test compounds were first diluted to 4 mM or 0.4 mM and then serially diluted 3-fold into 10 different concentrations using DMSO. […] Two μl of the diluted compounds were then dispensed into the HEK293-ALK2-R206H cell-containing wells of the microplates in duplicates. In this way, each compound was tested in 10 doses (3-fold serial dilution with the top concentration being 10 μM or 1 μM). Liquid handling was achieved using a Bravo Automated Liquid Handling Platform (Agilent Technologies). DMSO without compound was used as a negative control. The positive control was 1 μM LDN193189, a known bone morphogenetic protein (BMP inhibitor).
The 10-point dose response curve was used to calculate the IC50 values.
Blank values in the table indicate that the particular compound was not tested in this assay.
Background: Alpha assays give light when donor and acceptor beads are brought close together.

As usually defined, the IC50 is the concentration that gives 50% inhibition.

With `CC(C)N1CCC(O)(c2ccc(-c3cc4c(N5CCN(C(=O)C6CC6)CC5)ccnn4c3)cc2)C1` (centres unmarked) [Compound 271], the half-maximal inhibitory concentration (IC50) was less than 10 nM in test [1] and 100 to 500 nM in test [2].

Regarding `CC(C)N1CC[C@H](O)[C@@H](c2ccc(-c3cc4c(N5CCN(C(=O)OC6COC6)CC5)ccnn4c3)cc2)C1` [Compound 678], the IC50 was less than 10 nM in test [1] and less than 100 nM in test [2].

Consider `CCOC1(c2ccc(-c3cc4c(N5CCN(C(=O)O[C@@H]6CCOC6)CC5)ccnn4c3)nc2)CCN(C(C)C)CC1` [Compound 876], for which the 50% inhibitory concentration (IC50) in test [1] was less than 10 nM; in test [2] it was less than 100 nM.

As to `O=C(C1CC1)N1CCN(c2ccnn3cc(-c4ccc(C5(O)CN6CCC5CC6)cc4)cc23)CC1` (centres unmarked) [Compound 501], the figures for the IC50 in test [1] and in test [2] were less than 10 nM and 100 to 500 nM, respectively.

In the case of `CC(C)N1CC[C@@H](O)[C@H](c2ccc(-c3cc4c(N5CCN(C(=O)OC6COC6)CC5)ccnn4c3)cc2)C1` [Compound 679], the IC50 in test [1] was less than 10 nM; in test [2], less than 100 nM.

Consider `O=C(C1CC1)N1CCN(c2ccnn3cc(-c4ccc([C@@H]5CCCN(C6CCC6)C5)cc4)cc23)CC1` [Compound 305], for which the IC50 in test [1] was less than 10 nM; in test [2], less than 100 nM.

For `CC(C)N1CCC(c2ccc(-c3cc4c(N5CCN(C(=O)C6CC6)CC5)ccnn4c3)cc2)CC1` [Compound 246], the IC50 was less than 10 nM in test [1] and less than 100 nM in test [2].

Take `CCOC(=O)N1CCN(c2ccnn3cc(-c4ccc([C@@]5(O)CCN(C(C)C)C5)cc4)cc23)CC1` [Compound 550]: the 50% inhibitory concentration (IC50) in test [1] was less than 10 nM; in test [2] it was less than 100 nM.

As to `CC(C)N1CCC(c2ccc(-c3cc4c(N5CCN(C(=O)OC6COC6)CC5)ccnn4c3)c(Cl)c2)CC1` [Compound 726], the IC50 in test [1] was less than 10 nM; in test [2], 100 to 500 nM.

Take `CC(C)N1CCN[C@](C)(c2ccc(-c3cc4c(N5CCN(C(=O)C6CC6)CC5)ccnn4c3)cc2)C1` [Compound 570]: the IC50 is less than 10 nM in test [1] and less than 100 nM in test [2].

Turning to `COC[C@H](C)N1CCC(OC)(c2ccc(-c3cc4c(N5CCN(C(=O)NC(C)C)CC5)ccnn4c3)nc2)CC1` [Compound 736], the half-inhibitory concentration (IC50) was less than 10 nM in test [1] and less than 100 nM in test [2].

`CCN1CCN(c2c(F)cc(-c3cc4c(N5CCN(C(=O)C6CC6)CC5)ccnn4c3)cc2F)CC1` [Compound 360]: the IC50 in test [1] is less than 10 nM; in test [2], 100 to 500 nM.

As to `CC(=O)N1CCC(c2ccc(-c3cc4c(N5CCN(C(=O)C6CC6)CC5)ccnn4c3)cc2)CC1` [Compound 245], the IC50 fell in the range of 10 to 50 nM in test [1] and 100 to 500 nM in test [2].

In the case of `O=C(C1CC1)N1CCN(c2ccnn3cc(-c4ccc(C5CNCC5F)cc4)cc23)CC1` (centres unmarked) [Compound 137], the 50% inhibitory concentration (IC50) was less than 10 nM in test [1] and less than 100 nM in test [2].

As to `O=C(C1CC1)N1CCN(c2ccnn3cc(-c4ccc(C5COCCN5)cc4)cc23)CC1` (centres unmarked) [Compound 464], the IC50 in test [1] is less than 10 nM; in test [2], less than 100 nM.

As to `CCNC(=O)N1CCN(c2ccnn3cc(-c4ccc(C5CCN(C(C)C)CC5)cc4)cc23)C[C@H]1C` [Compound 339], the concentration for half-maximal inhibition (IC50) in test [1] was less than 10 nM; in test [2] it was less than 100 nM.

Regarding `CCOC(=O)N1CCN(c2ccnn3cc(-c4ccc(C5(OCC)CCN(C(C)C)CC5)cc4)cc23)CC1` [Compound 831], the 50% inhibitory concentration (IC50) in test [1] was less than 10 nM; in test [2] it was less than 100 nM.

Regarding `CCNC(=O)N1CCN(c2ccnn3cc(-c4ccc(C5CN(C(C)C)CCN5C)cc4)cc23)CC1` (centres unmarked) [Compound 587], the IC50 in test [1] was less than 10 nM; in test [2], less than 100 nM.

With `CCO[C@@]1(c2ccc(-c3cc4c(N5CCN(C(=O)NC(C)C)CC5)ccnn4c3)nc2)CCCNC1` [Compound 797], the results for the 50% inhibitory concentration (IC50) in test [1] and in test [2] were less than 10 nM and less than 100 nM, respectively.

Take `CC(C)N1CCN[C@@H](c2ccc(-c3cc4c(N5CCN(C(=O)C6CC6)CC5)ccnn4c3)cc2)C1` [Compound 518]: the IC50 is less than 10 nM in test [1] and less than 100 nM in test [2].

Turning to `N[C@@H](CO)c1ccc(-c2cc3c(N4CCN(C(=O)OC5COC5)CC4)ccnn3c2)cc1` [Compound 763], the results for the IC50 in test [1] and in test [2] were less than 10 nM and less than 100 nM, respectively.

Regarding `COC1(c2ccc(-c3cc4c(N5CCN(C(=O)OC6COC6)CC5)ccnn4c3)nc2)CCNC(C)(C)C1` (centres unmarked) [Compound 833], the concentration for half-maximal inhibition (IC50) was less than 10 nM in test [1] and less than 100 nM in test [2].

On to `CCN1CCN(c2ccc(-c3cc4c(N5CCN(C(=O)N6CCC6)CC5)ccnn4c3)cc2)CC1` [Compound 272], for which the IC50 in test [1] lay in the range of 10 to 50 nM; in test [2] it was 100 to 500 nM.

On to `O=C(C1CC1)N1CCN(c2ccnn3cc(-c4ccc([C@]5(F)CCCNC5)cc4)cc23)CC1` [Compound 179], for which the concentration for half-maximal inhibition (IC50) is less than 10 nM in test [1] and less than 100 nM in test [2].

With `CCOC1(c2ccc(-c3cc4c(N5CCN(C(=O)NC(C)C)CC5)ccnn4c3)nc2)CCN(C(C)CF)CC1` (centres unmarked) [Compound 860], the IC50 is less than 10 nM in test [1] and less than 100 nM in test [2].

Turning to `CCNC(=O)N1CCN(c2ccnn3cc(-c4ccc(C5(OC)CCCN(C(C)C)C5)cc4)cc23)CC1` (centres unmarked) [Compound 400], the IC50 in test [1] is less than 10 nM; in test [2] it was less than 100 nM.

For the compound `CC(C)N1C[C@@H](c2ccc(-c3cc4c(N5CCN(C(=O)C6CC6)CC5)ccnn4c3)cc2)C[C@@H]1C` [Compound 508], the IC50 in test [1] is less than 10 nM; in test [2], 100 to 500 nM.

Take `CCOC(=O)N1CCN(c2ccnn3cc(-c4ccc(C5CNCC5F)cc4)cc23)CC1` (centres unmarked) [Compound 145]: the half-maximal inhibitory concentration (IC50) in test [1] was less than 10 nM; in test [2] it was less than 100 nM.

For `CO[C@]1(c2ccc(-c3cc4c(N5CCN(C(=O)C6CC6)CC5)ccnn4c3)cc2)CCN(C(C)C)C1` [Compound 572], the IC50 was less than 10 nM in test [1] and less than 100 nM in test [2].

Take `O=C(C1CC1)N1CCN(c2ccnn3cc(-c4ccc(N5CCN6CCC6C5)cc4)cc23)CC1` (centres unmarked) [Compound 196]: the results for the IC50 in test [1] and in test [2] were less than 10 nM and 100 to 500 nM, respectively.

Regarding `CCN1CCN(c2ccc(-c3cc4c(N5CCN(C(=O)C6CC(C#N)C6)CC5)ccnn4c3)cc2)CC1` (centres unmarked) [Compound 367], the results for the half-inhibitory concentration (IC50) in test [1] and in test [2] were less than 10 nM and less than 100 nM, respectively.

With `CCN1CCC(c2ccc(-c3cc4c(N5CCN(C(=O)N6CC(C#N)C6)[C@H](C)C5)ccnn4c3)cc2)CC1` [Compound 412], the results for the half-inhibitory concentration (IC50) in test [1] and in test [2] were less than 10 nM and less than 100 nM, respectively.

In the case of `CO[C@]1(c2ccc(-c3cc4c(N5CCN(C(=O)OC6COC6)CC5)ccnn4c3)nc2)CCCNC1` [Compound 800], the results for the IC50 in test [1] and in test [2] were less than 10 nM and less than 100 nM, respectively.

For the compound `CC(C)N1CC[C@H](c2ccc(-c3cc4c(N5CCN(C(=O)[C@H]6C[C@H](O)C6)CC5)ccnn4c3)cc2)C1` [Compound 320], the concentration for half-maximal inhibition (IC50) in test [1] is less than 10 nM; in test [2], less than 100 nM.

`[2H]C([2H])([2H])C([2H])([2H])N1CCN(c2ccc(-c3cc4c(N5CCN(C(=O)NCC)CC5)ccnn4c3)cc2)CC1` [Compound 240]: the IC50 in test [1] is less than 10 nM; in test [2] it was less than 100 nM.

Take `CC(C)N1CCC(c2ccc(-c3cc4c(N5CCN(C(=O)[C@H]6CC[C@H](O)CC6)CC5)ccnn4c3)nc2)CC1` [Compound 432]: the figures for the concentration for half-maximal inhibition (IC50) in test [1] and in test [2] were less than 10 nM and less than 100 nM, respectively.

Take `COC1(c2ccc(-c3cc4c(N5CCN(C(=O)NC(C)C)CC5)ccnn4c3)cc2)CCNCC1` [Compound 541]: the values for the 50% inhibitory concentration (IC50) in test [1] and in test [2] were less than 10 nM and less than 100 nM, respectively.
